Series [1] can be described thus: Small Animal Decorporation Efficacy Study. The series is classed as in vivo. The following applies: rats; oral C2E5 compared with IV administration of equivalent doses of DTPA.
Series [2] in a line: Bioavailability study (oral C2E5 vs intravenous DTPA). The series is classed as in vivo, rat. As to the method:
A bioavailability study was conducted in which five rats were intravenously administered 5 mg of DTPA and another 5 rats were orally administered an equivalent […] dose (approximately 7 mg) of C2E5 in a 10% ethanol solution. Blood samples were obtained at regular intervals from an in-dwelling catheter that had been surgically implanted prior to the administration of the doses.

The structures appear in SMILES notation.

With `CCOC(=O)CN(CCN(CC(=O)OCC)CC(=O)OCC)CCN(CC(=O)OCC)CC(=O)OCC` [C2E5, DTPA Pentaethyl Ester], the “decorporation of ^241Am” value in series [1] is “compared favorably”. This molecule also came in with a bioavailability in series [2] (rat model, oral, approximately 7 mg C2E5 in a 10% ethanol solution, compared with 5 mg DTPA intravenously) of approximately 100%. In series [2] (rat, after oral C2E5 in a 10% ethanol solution), the “C2E5 detected in the plasma” value is recorded as “no C2E5 can be detected in the plasma”. The “conversion to DTPA after absorption from the gastrointestinal tract” value in series [2] (rat, oral C2E5) is “quantitatively and rapidly converted to DTPA”. Further, the “blood concentration profile compared to IV DTPA” value in series [2] (rat, oral C2E5 vs 5 mg DTPA intravenously) is “lower blood levels and a longer duration compared to IV DTPA”.
